In patent US20190133997A1, “ARTEMISININ ANALOG, AND USE, METHOD, AND COMPOSITION FOR PROMOTING LIPID CATABOLISM AND IMPROVING SUGAR METABOLISM” (FUDAN UNIVERSITY, priority 2016, published 2019):

Columns and labels:
BMP4-directed C3H10T1/2 = experiment: Artemisinin and analogues on BMP4-directed C3H10T1/2 (morphology, Western blot); format: cell-based; settings: concentration shown in FIG. 8, from Day 0 of differentiation; vs control
Experimental: 4.3.1 Culture and Differentiation of C3H10T1/2 According to Method 2.4.1.
Artemisinin, artesunate and dihydroartemisinin were stored in DMSO at a storage concentration of 10 mMol/L. The concentration shown in FIG. 8 was added on Day 0 of differentiation. Fresh medium was replaced every two days, and the corresponding concentrations of compounds were added until the cells differentiated to mature.
The method for extracting C3H10T1/2 cell total protein was the same as 2.4.3;
Western blot method and catalog number of antibody was the same as 2.4.4.

SVF primary preadipocyte = experiment: Artemether on differentiation of Stromal Vascular Fraction (SVF) primary preadipocytes (morphology, Western blot); format: cell-based, mice
Experimental: Inguinal fat of male mice was cut into pieces, treated with collagenase at 37° C. for 15 min, and centrifuged at 250 rpm for 10 min. The pellet was resuspended in F12/DMEM medium. 2.5×10^5 cells were taken and seeded in a 3.5 cm culture dish, which was pretreated with 1 ml polylysine for 30 min. Two days after cell contact inhibition (defined as Day 0 of differentiation), induction was performed according to adipocyte differentiation protocol as follows: two days after induction with F12/DMEM comprising 10% fetal bovine serum, 0.5 mMol/L Mix, 1 μMol/L Dex, 5 μg/ml insulin, and 1 μMol/L rosiglitazone; the culture was continued for 2 days with DMEM/F12 comprising 10% fetal bovine serum, […] insulin and 1 μMol/L rosiglitazone; thereafter, DMEM/F12 medium containing 10% fetal bovine serum was replaced every other day until the cells differentiated to Day 8.
On Day 0 of differentiation, SVF was treated with different concentrations of artemether ([…]), then fresh medium was replaced, and the corresponding concentration of artemether was added until the cells differentiated to mature.
The method for extracting total SVF protein was the same as 2.4.3, Western blot method and catalog number of antibody was the same as 2.4.4.

high fat-fed mice [1] = experiment: Intraperitoneal artemether, weight gain induced by high-fat diet; format: in vivo, Male C57BL/6J mice; settings: intraperitoneal 20 mg/kg twice a week, eight weeks
Experimental: The mice were breeded in the SPF animal laboratory of the Laboratory Animal Center of Fudan University at a room temperature of 21° C.-23° C. with a 12-hour light/dark cycle. […] When the mice were grown to 8-week old, they were randomly divided into a control group and an administration group, with 8 mice in each group. While the mice were fed with a high-fat diet, artemether was injected intraperitoneally. Artemether for intraperitoneal injection was stored at 4° C. in coconut oil at a storage concentration of 6 mg/ml (20 mMol/L), and protected from light. Mice in administration group were injected with artemether at a dose of 20 mg/kg weight. Administration was twice a week for eight weeks, and the weight of the mice was recorded weekly.

ob/ob mice = experiment: Intraperitoneal artemether, weight gain in diabetic ob/ob mice; format: in vivo, Male ob/ob mice; settings: intraperitoneal 20 mg/kg twice a week, eight weeks
Experimental: The ob/ob mice were breeded in the SPF animal laboratory of the Laboratory Animal Center of Fudan University at a room temperature of 21° C.-23° C. with a 12-hour light/dark cycle. When the mice were grown to 4-week old, they were randomly divided into a control group and an administration group, with 4 mice in each group. The administration group was injected intraperitoneally with artemether. Artemether for intraperitoneal injection was stored at 4° C. in coconut oil at a storage concentration of 6 mg/ml (20 mMol/L), and protected from light. Ob/ob mice in administration group were injected with artemether at a dose of 20 mg/kg weight. Administration was twice a week for eight weeks, and the weight of the mice was recorded weekly.

high fat-fed mice [2] = experiment: Subcutaneous artemether, fatty liver induced by high-fat diet (HE staining); format: in vivo, Male C57BL/6J mice; settings: subcutaneous injection, eight weeks, control: obvious lipid accumulation
Experimental: The mice were breeded in the SPF animal laboratory of the Laboratory Animal Center of Fudan University at a room temperature of 21° C.-23° C. with a 12-hour light/dark cycle. […] When the mice were grown to 8-week old, they were randomly divided into a control group and an administration group, with 8 mice in each group. While the mice were fed with a high-fat diet, artemether was injected subcutaneously. Artemether was diluted in PBS at a concentration of […], and injected into bilateral inguinal region, with 200 μl being injected into each side. Mice in control group were injected with the same volume of PBS. Administration was continued for eight weeks. The mice were sacrificed by cervical dislocation, and liver tissues of mice were removed. The histological analysis including tissue fixation, paraffin embedding, sectioning and HE staining was commissioned by Shanghai Saige Biotech Co., Ltd.

[3] = Intraperitoneal artemether 20 mg/kg, liver damage in healthy mice (HE staining); format: in vivo, Male C57BL/6J mice
Experimental: The mice were breeded in the SPF animal laboratory of the Laboratory Animal Center of Fudan University at a room temperature of 21° C.-23° C. with a 12-hour light/dark cycle. When the mice were grown to 8-week old, they were randomly divided into a control group and an administration group, with 8 mice in each group. Mice in administration group were injected intraperitoneally with artemether. Artemether for intraperitoneal injection was stored at 4° C. in coconut oil at a storage concentration of 6 mg/ml (20 mMol/L), and protected from light. Mice in administration group were injected with artemether at a dose of 20 mg/kg weight. Mice in control group were injected 100 μl coconut oil. Administration was twice a week for eight weeks. The mice were sacrificed by cervical dislocation, and liver tissues of mice were removed and fixed. Liver tissue fixation, paraffin embedding, sectioning and HE staining was commissioned by Shanghai Saige Biotech Co., Ltd.

high fat-fed mice [4] = experiment: Intraperitoneal artemether, cold exposure and UCP1 immunohistochemistry of subcutaneous fat in high fat-fed mice; format: in vivo, Male C57BL/6J mice; settings: high-fat diet, intraperitoneal 20 mg/kg twice a week, eight weeks
Experimental: The mice were breeded in the SPF animal laboratory of the Laboratory Animal Center of Fudan University at a room temperature of 21° C.-23° C. with a 12-hour light/dark cycle. […] When the mice were grown to 8-week old, they were randomly divided into a control group and an administration group, with 8 mice in each group. While the mice were fed with a high-fat diet, artemether was injected intraperitoneally. Artemether for intraperitoneal injection was stored at 4° C. in coconut oil at a storage concentration of 6 mg/ml (20 mMol/L), and protected from light. Mice in administration group were injected with artemether at a dose of 20 mg/kg weight. Administration was twice a week for eight weeks. Mice were fasted and housed in a breeding box at 4° C. The rectal temperature was measured every 2 hours. The mice were sacrificed by cervical dislocation after 6 hours, and the inguinal fat was removed for histological analysis. The histological analysis including tissue fixation, paraffin embedding, sectioning and immunohistochemistry experiment of UCP1 was commissioned by Shanghai Saige Biotech Co., Ltd.

[5] = SVF, artemether 5, 10, 15 Mol/L, Western Blot

CO[C@H]1O[C@@H]2O[C@@]3(C)CC[C@H]4[C@H](C)CC[C@@H]([C@H]1C)[C@@]24OO3 [artemether]
cell morphology of C3H10T1/2 (BMP4-directed C3H10T1/2): exhibited brown adipocyte-like characteristics | expression level of PGC1α (SVF primary preadipocyte; [5]): gradually increase with the increase of artemether concentration | expression level of PRDM16 (SVF primary preadipocyte; [5]): gradually increase with the increase of artemether concentration | expression level of UCP1 (SVF primary preadipocyte; [5]): gradually increase with the increase of artemether concentration | cell morphology of SVF primary preadipocyte (SVF primary preadipocyte; artemether 5, 10, 15 Mol/L during differentiation, vs standard differentiated control cells, concentration-dependent tendency): smaller in size, with characteristics of multi-cavity small lipid droplets | weight gain of mice (high fat-fed mice [1]): significantly slower than that of mice in control group | weight of mice (high fat-fed mice [1]; statistically different after three weeks): significantly lower than that of mice in control group | weight gain of ob/ob mice (ob/ob mice): significantly slower than that of mice in control group | weight of ob/ob mice (ob/ob mice): tended to be lower than that of mice in control group, but was not statistically different | lipid in the liver (fatty liver) (high fat-fed mice [2]): only a small amount of lipid | morphology of liver cells ([3]; healthy lean mice, intraperitoneal 20 mg/kg twice a week, eight weeks): normal, and had no difference from that of mice in control group | hepatotoxicity ([3]; intraperitoneal 20 mg/kg weight twice a week for eight weeks): no hepatotoxicity | body temperature in an environment of 4° C. (high fat-fed mice [4]): significantly higher than that of mice in control group | UCP1 expression in subcutaneous fat (immunohistochemistry) (high fat-fed mice [4]; after 6 hours at 4° C.): exhibited significant UCP1 expression
